Each structure is given as a SMILES string.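 Step 1: Grow cells in 96-well plates. Step 2: Expose to compound for 48 hours at 5 concentrations. Step 3: Interpolate endpoints linearly; if unreached, use highest concentration. Definition used: TGI = concentration required for complete inhibition of growth.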 Bounds are passed on as bounds.

Drawing on PubChem BioAssay (NCI), this text covers TGI for four molecules.

The first test relates to SF-539 CNS. As to the kind of experiment: DTP human tumour cell line panel, 48 h.
Molecule `COc1ccc(Nc2nc(NS(=O)(=O)c3cc(C)c(Cl)cc3S)n[nH]2)cc1` came in with a TGI of over 100 µM.

A further test has as its system SK-MEL-2 melanoma. As to the kind of experiment: DTP human tumour cell line panel, 48 h.
In the case of `CC(=O)O[C@H]1CC[C@@]2(C)C(=CC[C@H]3[C@@H]4C[C@H](N5CCCC5)[C@H](OC(C)=O)[C@@]4(C)CC[C@@H]32)C1`, the TGI is over 100 µM.

Turning to `CC1=NN2C(=N)/C(=C/c3ccco3)C(=O)N=C2S1`, the TGI was over 100 µM.

Turning to `COc1ccc(Nc2nc(NS(=O)(=O)c3cc(C)c(Cl)cc3S)n[nH]2)cc1`, the TGI was over 100 µM.

The next test deals with SK-MEL-28 melanoma. As to the kind of experiment: DTP human tumour cell line panel, 48 h.
`CC(=O)O[C@H]1CC[C@@]2(C)C(=CC[C@H]3[C@@H]4C[C@H](N5CCCC5)[C@H](OC(C)=O)[C@@]4(C)CC[C@@H]32)C1` had a TGI of over 100 µM.

For the molecule `CC1=NN2C(=N)/C(=C/c3ccco3)C(=O)N=C2S1`, the TGI was over 100 µM.

For `COc1ccc(Nc2nc(NS(=O)(=O)c3cc(C)c(Cl)cc3S)n[nH]2)cc1`, the TGI was over 100 µM.

The subject of a further test is SK-MEL-5 melanoma. As to the kind of experiment: DTP human tumour cell line panel, 48 h.
Consider `CC(=O)O[C@H]1CC[C@@]2(C)C(=CC[C@H]3[C@@H]4C[C@H](N5CCCC5)[C@H](OC(C)=O)[C@@]4(C)CC[C@@H]32)C1`, for which the TGI worked out at 54.8 µM.

Regarding `CC1=NN2C(=N)/C(=C/c3ccco3)C(=O)N=C2S1`, the TGI is over 100 µM.

On to `COc1ccc(Nc2nc(NS(=O)(=O)c3cc(C)c(Cl)cc3S)n[nH]2)cc1`, for which the TGI is over 100 µM.

The next test has as its system SK-OV-3 ovarian. As to the kind of experiment: DTP human tumour cell line panel, 48 h.
The molecule `CC(=O)O[C@H]1CC[C@@]2(C)C(=CC[C@H]3[C@@H]4C[C@H](N5CCCC5)[C@H](OC(C)=O)[C@@]4(C)CC[C@@H]32)C1` gave a TGI of over 100 µM.

`CC1=NN2C(=N)/C(=C/c3ccco3)C(=O)N=C2S1` registered a TGI of over 100 µM.

For the molecule `COc1ccc(Nc2nc(NS(=O)(=O)c3cc(C)c(Cl)cc3S)n[nH]2)cc1`, the TGI was over 100 µM.

A further test deals with SN12C renal. Kind of test: DTP human tumour cell line panel, 48 h.
Regarding `CC(=O)O[C@H]1CC[C@@]2(C)C(=CC[C@H]3[C@@H]4C[C@H](N5CCCC5)[C@H](OC(C)=O)[C@@]4(C)CC[C@@H]32)C1`, the TGI was over 100 µM.

As to `CC1=NN2C(=N)/C(=C/c3ccco3)C(=O)N=C2S1`, the TGI was over 100 µM.

As to `COc1cccc(C2CC(C)=Nc3c(ccc4c3C(=O)c3ccccc3C4=O)N2)c1O` (centres undefined), the TGI was over 100 µM.

`COc1ccc(Nc2nc(NS(=O)(=O)c3cc(C)c(Cl)cc3S)n[nH]2)cc1` registered a TGI of over 100 µM.

The test system of another test is SNB-19 CNS. As to the kind of experiment: DTP human tumour cell line panel, 48 h.
`CC(=O)O[C@H]1CC[C@@]2(C)C(=CC[C@H]3[C@@H]4C[C@H](N5CCCC5)[C@H](OC(C)=O)[C@@]4(C)CC[C@@H]32)C1`: the TGI is over 100 µM.

In the case of `CC1=NN2C(=N)/C(=C/c3ccco3)C(=O)N=C2S1`, the TGI is over 100 µM.

Take `COc1cccc(C2CC(C)=Nc3c(ccc4c3C(=O)c3ccccc3C4=O)N2)c1O` (centres undefined): the TGI is over 100 µM.

Molecule `COc1ccc(Nc2nc(NS(=O)(=O)c3cc(C)c(Cl)cc3S)n[nH]2)cc1` registered a concentration for total growth inhibition (TGI) of over 100 µM.

Another test relates to SNB-75 CNS. As to the kind of experiment: DTP human tumour cell line panel, 48 h.
Regarding `CC(=O)O[C@H]1CC[C@@]2(C)C(=CC[C@H]3[C@@H]4C[C@H](N5CCCC5)[C@H](OC(C)=O)[C@@]4(C)CC[C@@H]32)C1`, the TGI is over 100 µM.

Regarding `CC1=NN2C(=N)/C(=C/c3ccco3)C(=O)N=C2S1`, the TGI is over 100 µM.

The molecule `COc1cccc(C2CC(C)=Nc3c(ccc4c3C(=O)c3ccccc3C4=O)N2)c1O` (centres undefined) gave a TGI of over 100 µM.

`COc1ccc(Nc2nc(NS(=O)(=O)c3cc(C)c(Cl)cc3S)n[nH]2)cc1` came in with a TGI of over 100 µM.

A further test has as its system SNB-78 CNS. As to the kind of experiment: DTP human tumour cell line panel, 48 h.
`COc1cccc(C2CC(C)=Nc3c(ccc4c3C(=O)c3ccccc3C4=O)N2)c1O` (centres undefined): the TGI was over 100 µM.

The next test deals with SR leukemia. Kind of test: DTP human tumour cell line panel, 48 h.
The molecule `CC(=O)O[C@H]1CC[C@@]2(C)C(=CC[C@H]3[C@@H]4C[C@H](N5CCCC5)[C@H](OC(C)=O)[C@@]4(C)CC[C@@H]32)C1` gave a TGI of over 100 µM.

Molecule `CC1=NN2C(=N)/C(=C/c3ccco3)C(=O)N=C2S1` yielded a TGI of over 100 µM.

In turn, `COc1ccc(Nc2nc(NS(=O)(=O)c3cc(C)c(Cl)cc3S)n[nH]2)cc1` came in with a TGI of over 100 µM.

A further test has as its system SW-620 colon. Kind of test: DTP human tumour cell line panel, 48 h.
The molecule `CC(=O)O[C@H]1CC[C@@]2(C)C(=CC[C@H]3[C@@H]4C[C@H](N5CCCC5)[C@H](OC(C)=O)[C@@]4(C)CC[C@@H]32)C1` yielded a TGI of over 100 µM.

The molecule `CC1=NN2C(=N)/C(=C/c3ccco3)C(=O)N=C2S1` showed a concentration for total growth inhibition (TGI) of over 100 µM.

`COc1cccc(C2CC(C)=Nc3c(ccc4c3C(=O)c3ccccc3C4=O)N2)c1O` (centres undefined) had a TGI of over 100 µM.

As for `COc1ccc(Nc2nc(NS(=O)(=O)c3cc(C)c(Cl)cc3S)n[nH]2)cc1`, the TGI is over 100 µM.

A further test has as its system T-47D breast. Kind of test: DTP human tumour cell line panel, 48 h.
On to `CC(=O)O[C@H]1CC[C@@]2(C)C(=CC[C@H]3[C@@H]4C[C@H](N5CCCC5)[C@H](OC(C)=O)[C@@]4(C)CC[C@@H]32)C1`, for which the TGI was over 100 µM.

For the molecule `CC1=NN2C(=N)/C(=C/c3ccco3)C(=O)N=C2S1`, the TGI was over 100 µM.

Molecule `COc1ccc(Nc2nc(NS(=O)(=O)c3cc(C)c(Cl)cc3S)n[nH]2)cc1` had a TGI of over 100 µM.

The next test has as its system TK-10 renal. Kind of test: DTP human tumour cell line panel, 48 h.
The molecule `CC(=O)O[C@H]1CC[C@@]2(C)C(=CC[C@H]3[C@@H]4C[C@H](N5CCCC5)[C@H](OC(C)=O)[C@@]4(C)CC[C@@H]32)C1` gave a TGI of over 100 µM.

Molecule `CC1=NN2C(=N)/C(=C/c3ccco3)C(=O)N=C2S1` yielded a TGI of over 100 µM.

As to `COc1ccc(Nc2nc(NS(=O)(=O)c3cc(C)c(Cl)cc3S)n[nH]2)cc1`, the TGI was over 100 µM.

For the next test, the system named is U251 CNS. As to the kind of experiment: DTP human tumour cell line panel, 48 h.
`CC(=O)O[C@H]1CC[C@@]2(C)C(=CC[C@H]3[C@@H]4C[C@H](N5CCCC5)[C@H](OC(C)=O)[C@@]4(C)CC[C@@H]32)C1` displayed a total growth inhibition concentration (TGI) of over 100 µM.

Regarding `CC1=NN2C(=N)/C(=C/c3ccco3)C(=O)N=C2S1`, the TGI is over 100 µM.

Molecule `COc1cccc(C2CC(C)=Nc3c(ccc4c3C(=O)c3ccccc3C4=O)N2)c1O` (centres undefined) came in with a TGI of over 100 µM.

In the case of `COc1ccc(Nc2nc(NS(=O)(=O)c3cc(C)c(Cl)cc3S)n[nH]2)cc1`, the TGI was over 100 µM.

For another test, the system named is UACC-257 melanoma. Kind of test: DTP human tumour cell line panel, 48 h.
Regarding `CC(=O)O[C@H]1CC[C@@]2(C)C(=CC[C@H]3[C@@H]4C[C@H](N5CCCC5)[C@H](OC(C)=O)[C@@]4(C)CC[C@@H]32)C1`, the TGI was over 68.2 µM.

Take `CC1=NN2C(=N)/C(=C/c3ccco3)C(=O)N=C2S1`: the TGI is over 100 µM.

In turn, `COc1ccc(Nc2nc(NS(=O)(=O)c3cc(C)c(Cl)cc3S)n[nH]2)cc1` registered a TGI of over 100 µM.

In a further test the test system is UACC-62 melanoma. As to the kind of experiment: DTP human tumour cell line panel, 48 h.
`CC(=O)O[C@H]1CC[C@@]2(C)C(=CC[C@H]3[C@@H]4C[C@H](N5CCCC5)[C@H](OC(C)=O)[C@@]4(C)CC[C@@H]32)C1` displayed a TGI of over 100 µM.

Regarding `CC1=NN2C(=N)/C(=C/c3ccco3)C(=O)N=C2S1`, the TGI is over 100 µM.

`COc1cccc(C2CC(C)=Nc3c(ccc4c3C(=O)c3ccccc3C4=O)N2)c1O` (centres undefined): the concentration for total growth inhibition (TGI) was over 100 µM.

The molecule `COc1ccc(Nc2nc(NS(=O)(=O)c3cc(C)c(Cl)cc3S)n[nH]2)cc1` displayed a TGI of over 100 µM.

The next test concerns UO-31 renal. As to the kind of experiment: DTP human tumour cell line panel, 48 h.
`CC(=O)O[C@H]1CC[C@@]2(C)C(=CC[C@H]3[C@@H]4C[C@H](N5CCCC5)[C@H](OC(C)=O)[C@@]4(C)CC[C@@H]32)C1`: the TGI was over 100 µM.

For the molecule `CC1=NN2C(=N)/C(=C/c3ccco3)C(=O)N=C2S1`, the TGI was over 100 µM.

Molecule `COc1cccc(C2CC(C)=Nc3c(ccc4c3C(=O)c3ccccc3C4=O)N2)c1O` (centres undefined) came in with a TGI of over 100 µM.

With `COc1ccc(Nc2nc(NS(=O)(=O)c3cc(C)c(Cl)cc3S)n[nH]2)cc1`, the TGI is over 100 µM.
